Experiments:
[1] = biological target: Prostaglandin G/H synthase 1 (Homo sapiens, UniProt P23219); test: biochemical; assay type: tissue-based, Platelet; details: platelet;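 further: inhibition of COX-1 enzyme activity, with arachidonic acid supplied as substrate; in other assays of this panel Not Active means under 50% inhibition at 10 µM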
Insulin receptor = Insulin receptor (Rattus norvegicus, UniProt P15127); assay type: cell membranes, Wistar, Liver, Membrane; further: in other assays of this panel Not Active means under 50% inhibition at 10 µM
[2] = DRUGMATRIX: ATPase, Na+/K+ enzyme inhibition (substrate: ATP); assay type: tissue-based, Sus scrofa, Heart; details: Not Active = under 50% inhibition at 10 µM
[3] = DRUGMATRIX: Nicotinic Acetylcholine radioligand binding (ligand: [125I] Epibatidine); assay type: cell membranes, Membrane; details: imr-32; Not Active = under 50% inhibition at 10 µM
Cytochrome P450 1A2 = biological target: T1, Cytochrome P450 1A2 (Homo sapiens, UniProt P05177); details: bti-tn-5b1-4; further: in other assays of this panel Not Active means under 50% inhibition at 10 µM
T1 sequence (P05177 whole entry): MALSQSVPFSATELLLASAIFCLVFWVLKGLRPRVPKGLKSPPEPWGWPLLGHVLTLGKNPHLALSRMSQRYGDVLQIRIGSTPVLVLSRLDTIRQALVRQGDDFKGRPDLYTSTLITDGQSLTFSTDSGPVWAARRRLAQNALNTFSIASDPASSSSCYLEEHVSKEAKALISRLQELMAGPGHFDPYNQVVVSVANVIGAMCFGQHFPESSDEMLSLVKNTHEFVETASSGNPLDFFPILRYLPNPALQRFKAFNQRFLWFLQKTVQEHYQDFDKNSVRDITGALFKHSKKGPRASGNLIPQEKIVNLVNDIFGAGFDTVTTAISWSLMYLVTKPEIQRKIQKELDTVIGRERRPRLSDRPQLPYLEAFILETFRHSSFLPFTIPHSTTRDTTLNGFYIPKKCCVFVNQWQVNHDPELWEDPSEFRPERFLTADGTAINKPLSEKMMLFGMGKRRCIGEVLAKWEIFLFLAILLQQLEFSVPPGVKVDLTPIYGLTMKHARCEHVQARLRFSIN

[4] = biological target: cGMP-specific 3',5'-cyclic phosphodiesterase (Homo sapiens, UniProt O76074); test: DRUGMATRIX: Phosphodiesterase PDE5 enzyme inhibition (substrate: [3H]cGMP + cGMP); assay type: tissue-based; details: platelet; Not Active = under 50% inhibition at 10 µM
D(1A) dopamine receptor = D(1A) dopamine receptor (Homo sapiens, UniProt P21728); test: DRUGMATRIX: Dopamine D1 radioligand binding (ligand: [3H] SCH-23390); assay type: cell membranes, CHO, Membrane; details: cho; Not Active = under 50% inhibition at 10 µM
[5] = DRUGMATRIX: GABAA, Chloride Channel, TBOB radioligand binding (ligand: [3H] TBOB); assay type: cell membranes, Rattus norvegicus, Wistar, Cerebral cortex, Membrane; details: Not Active = under 50% inhibition at 10 µM
Cytochrome P450 3A4 = Cytochrome P450 3A4 (Homo sapiens, UniProt P08684); details: bti-tn-5b1-4; further: in other assays of this panel Not Active means under 50% inhibition at 10 µM
Chain of Cytochrome P450 3A4 (P08684 whole entry): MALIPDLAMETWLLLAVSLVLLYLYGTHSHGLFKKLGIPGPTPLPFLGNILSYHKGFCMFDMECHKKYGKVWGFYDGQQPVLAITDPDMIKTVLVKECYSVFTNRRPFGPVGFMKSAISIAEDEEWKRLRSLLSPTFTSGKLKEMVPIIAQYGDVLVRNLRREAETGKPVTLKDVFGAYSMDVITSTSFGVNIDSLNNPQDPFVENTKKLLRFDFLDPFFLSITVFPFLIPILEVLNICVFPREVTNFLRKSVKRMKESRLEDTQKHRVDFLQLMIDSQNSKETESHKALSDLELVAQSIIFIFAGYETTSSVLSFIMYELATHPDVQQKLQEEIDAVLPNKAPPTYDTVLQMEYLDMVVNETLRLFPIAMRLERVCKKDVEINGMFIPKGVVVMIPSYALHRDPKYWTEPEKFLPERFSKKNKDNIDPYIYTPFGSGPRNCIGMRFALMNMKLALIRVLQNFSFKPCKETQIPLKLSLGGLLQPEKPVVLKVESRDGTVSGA

Chain of D(1A) dopamine receptor (P21728 whole entry): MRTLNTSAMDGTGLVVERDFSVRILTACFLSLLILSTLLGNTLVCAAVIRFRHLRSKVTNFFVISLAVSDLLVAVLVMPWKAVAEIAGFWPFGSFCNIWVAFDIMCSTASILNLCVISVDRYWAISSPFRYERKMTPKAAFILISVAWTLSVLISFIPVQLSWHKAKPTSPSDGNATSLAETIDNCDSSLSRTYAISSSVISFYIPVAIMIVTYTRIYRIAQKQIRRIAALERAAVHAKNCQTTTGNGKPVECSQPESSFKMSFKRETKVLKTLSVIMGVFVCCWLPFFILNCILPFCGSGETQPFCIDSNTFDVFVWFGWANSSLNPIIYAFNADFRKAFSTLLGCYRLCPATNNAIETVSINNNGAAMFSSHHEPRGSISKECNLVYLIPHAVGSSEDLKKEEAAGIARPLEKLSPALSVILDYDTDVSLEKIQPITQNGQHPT
Chain of Prostaglandin G/H synthase 1 (P23219 whole entry): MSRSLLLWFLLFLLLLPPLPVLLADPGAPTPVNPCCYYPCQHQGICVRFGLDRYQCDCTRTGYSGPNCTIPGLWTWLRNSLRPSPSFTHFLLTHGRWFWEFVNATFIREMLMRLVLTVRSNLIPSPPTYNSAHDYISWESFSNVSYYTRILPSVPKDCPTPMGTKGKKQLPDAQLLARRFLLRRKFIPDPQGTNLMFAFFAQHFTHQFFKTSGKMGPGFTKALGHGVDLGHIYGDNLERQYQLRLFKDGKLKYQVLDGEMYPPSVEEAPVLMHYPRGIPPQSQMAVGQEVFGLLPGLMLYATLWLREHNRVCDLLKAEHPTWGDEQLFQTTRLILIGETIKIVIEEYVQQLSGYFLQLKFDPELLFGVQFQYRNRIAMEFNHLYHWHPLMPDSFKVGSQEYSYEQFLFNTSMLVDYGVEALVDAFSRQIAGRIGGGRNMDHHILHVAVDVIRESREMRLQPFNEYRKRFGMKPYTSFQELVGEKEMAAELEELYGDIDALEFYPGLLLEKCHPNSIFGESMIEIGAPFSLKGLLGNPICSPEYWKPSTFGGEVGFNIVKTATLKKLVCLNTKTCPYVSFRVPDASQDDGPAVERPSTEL
Chain of Insulin receptor (P15127 27-759 limits assumed): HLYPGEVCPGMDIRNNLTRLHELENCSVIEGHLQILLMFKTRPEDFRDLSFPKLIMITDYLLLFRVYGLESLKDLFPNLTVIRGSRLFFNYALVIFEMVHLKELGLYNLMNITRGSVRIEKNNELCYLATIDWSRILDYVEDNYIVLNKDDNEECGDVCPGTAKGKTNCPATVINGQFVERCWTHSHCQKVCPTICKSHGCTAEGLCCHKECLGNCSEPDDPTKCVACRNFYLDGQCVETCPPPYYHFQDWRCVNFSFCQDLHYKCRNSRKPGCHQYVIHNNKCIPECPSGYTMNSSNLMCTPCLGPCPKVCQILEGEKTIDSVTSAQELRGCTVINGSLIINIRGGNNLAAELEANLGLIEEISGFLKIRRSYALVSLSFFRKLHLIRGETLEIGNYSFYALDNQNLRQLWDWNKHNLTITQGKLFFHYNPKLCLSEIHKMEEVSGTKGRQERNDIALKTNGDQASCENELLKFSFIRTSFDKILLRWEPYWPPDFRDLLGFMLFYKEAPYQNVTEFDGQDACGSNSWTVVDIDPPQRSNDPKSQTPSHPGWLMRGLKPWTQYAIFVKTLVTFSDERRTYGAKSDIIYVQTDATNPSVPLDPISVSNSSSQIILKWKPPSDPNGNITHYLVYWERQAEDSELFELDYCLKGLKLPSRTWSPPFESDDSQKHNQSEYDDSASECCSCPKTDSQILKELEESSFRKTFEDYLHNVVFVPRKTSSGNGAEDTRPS
Chain of Insulin receptor (P15127 764-1383 limits assumed): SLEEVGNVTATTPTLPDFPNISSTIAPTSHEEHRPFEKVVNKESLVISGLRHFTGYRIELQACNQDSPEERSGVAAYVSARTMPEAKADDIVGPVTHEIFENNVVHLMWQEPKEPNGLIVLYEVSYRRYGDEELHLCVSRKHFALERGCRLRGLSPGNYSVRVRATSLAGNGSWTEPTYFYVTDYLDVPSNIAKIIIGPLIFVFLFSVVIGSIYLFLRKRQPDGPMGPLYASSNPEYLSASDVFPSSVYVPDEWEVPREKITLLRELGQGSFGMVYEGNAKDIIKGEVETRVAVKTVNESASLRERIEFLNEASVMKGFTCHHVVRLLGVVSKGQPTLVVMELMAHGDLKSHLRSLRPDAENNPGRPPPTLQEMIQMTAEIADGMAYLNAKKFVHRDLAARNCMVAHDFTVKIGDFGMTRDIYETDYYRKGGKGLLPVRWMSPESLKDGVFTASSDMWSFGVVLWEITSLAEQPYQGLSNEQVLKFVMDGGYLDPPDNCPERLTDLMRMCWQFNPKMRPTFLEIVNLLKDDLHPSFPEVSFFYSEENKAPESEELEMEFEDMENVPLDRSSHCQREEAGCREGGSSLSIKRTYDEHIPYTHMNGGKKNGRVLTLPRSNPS

COc1cc(N)nc2[nH]c(-c3ccc(F)cc3)c(-c3ccncc3)c12
Not Active: IC50 [1] | IC50 (Insulin receptor) | IC50 [2] | Ki [2] | IC50 [3] | Ki [3] | IC50 (Cytochrome P450 1A2) | Ki (Cytochrome P450 1A2) | IC50 [4] | IC50 (D(1A) dopamine receptor) | IC50 [5] | Ki [5]

CCCc1nn(C)c2c(=O)[nH]c(-c3cc(S(=O)(=O)N4CCN(C)CC4)ccc3OCC)nc12
Not Active: IC50 [1] | IC50 (Insulin receptor) | IC50 [2] | Ki [2] | IC50 [3] | Ki [3] | IC50 (Cytochrome P450 1A2) | Ki (Cytochrome P450 1A2) | IC50 (Cytochrome P450 3A4) | Ki (Cytochrome P450 3A4) | IC50 (D(1A) dopamine receptor) | IC50 [5] | Ki [5]

COc1ccc(/C=C/C(=O)Nc2ccccc2C(=O)O)cc1OC
Not Active: IC50 [1] | IC50 (Insulin receptor) | IC50 [2] | Ki [2] | IC50 [3] | Ki [3] | IC50 (Cytochrome P450 1A2) | Ki (Cytochrome P450 1A2) | IC50 [4] | IC50 (Cytochrome P450 3A4) | Ki (Cytochrome P450 3A4) | IC50 (D(1A) dopamine receptor) | IC50 [5] | Ki [5]

CC(=O)Nc1nnc(S(N)(=O)=O)s1 [ACETAZOLAMIDE]
Not Active: IC50 [1] | IC50 (Insulin receptor) | IC50 (Cytochrome P450 1A2) | Ki (Cytochrome P450 1A2) | IC50 [4] | IC50 (Cytochrome P450 3A4) | Ki (Cytochrome P450 3A4)

O=c1[nH]c2ccccc2n1CCCN1CCC(n2c(=O)[nH]c3cc(Cl)ccc32)CC1 [DOMPERIDONE]
Not Active: IC50 [1] | IC50 (Insulin receptor) | IC50 [4]

CC(C)OC(=O)C(C)(C)Oc1ccc(C(=O)c2ccc(Cl)cc2)cc1 [FENOFIBRATE]
Not Active: IC50 [1] | IC50 (Insulin receptor) | IC50 (Cytochrome P450 1A2) | Ki (Cytochrome P450 1A2) | IC50 [4] | IC50 (Cytochrome P450 3A4) | Ki (Cytochrome P450 3A4)

OCCN1CCN(CCCN2c3ccccc3Sc3ccc(C(F)(F)F)cc32)CC1 [FLUPHENAZINE]
Not Active: IC50 [1] | IC50 (Insulin receptor) | IC50 [4]

CN1C2CCCC1CC(NC(=O)c1nn(C)c3ccccc13)C2 (configuration not stated) [GRANISETRON]
Not Active: IC50 [1] | IC50 (Insulin receptor) | IC50 (Cytochrome P450 1A2) | Ki (Cytochrome P450 1A2) | IC50 [4] | IC50 (Cytochrome P450 3A4) | Ki (Cytochrome P450 3A4)

CC[C@@H](CO)NC(=O)[C@@H]1C=C2c3cccc4c3c(cn4C)C[C@H]2N(C)C1 [METHYSERGIDE]
Not Active: IC50 [1] | IC50 (Insulin receptor) | IC50 (Cytochrome P450 1A2) | Ki (Cytochrome P450 1A2) | IC50 [4] | IC50 (Cytochrome P450 3A4) | Ki (Cytochrome P450 3A4)

CCN(CC)CC#CCOC(=O)C(O)(c1ccccc1)C1CCCCC1 (configuration not stated) [OXYBUTYNIN]
Not Active: IC50 [1] | IC50 (Insulin receptor) | IC50 (Cytochrome P450 1A2) | Ki (Cytochrome P450 1A2) | IC50 [4] | IC50 (Cytochrome P450 3A4) | Ki (Cytochrome P450 3A4)

CN(CCOc1ccc(CC2SC(=O)NC2=O)cc1)c1ccccn1 (configuration not stated) [ROSIGLITAZONE]
Not Active: IC50 [1] | IC50 (Insulin receptor) | IC50 [2] | Ki [2] | IC50 [3] | Ki [3] | IC50 (Cytochrome P450 1A2) | Ki (Cytochrome P450 1A2) | IC50 [4] | IC50 (D(1A) dopamine receptor) | IC50 [5] | Ki [5]

CO[C@H]1C[C@@H]2CC[C@@H](C)[C@@](O)(O2)C(=O)C(=O)N2CCCC[C@H]2C(=O)O[C@H]([C@H](C)C[C@@H]2CC[C@@H](O)[C@H](OC)C2)CC(=O)[C@H](C)/C=C(\C)[C@@H](O)[C@@H](OC)C(=O)[C@H](C)C[C@H](C)/C=C/C=C/C=C/1C [SIROLIMUS]
Not Active: IC50 [1] | IC50 (Insulin receptor) | IC50 [2] | Ki [2] | IC50 [3] | Ki [3] | IC50 (Cytochrome P450 1A2) | Ki (Cytochrome P450 1A2) | IC50 [4] | IC50 (D(1A) dopamine receptor) | IC50 [5] | Ki [5]

CN[C@@H]1[C@H](O)[C@H](NC)[C@H]2O[C@@]3(O)C(=O)C[C@@H](C)O[C@H]3O[C@@H]2[C@H]1O [SPECTINOMYCIN]
Not Active: IC50 [1] | IC50 (Insulin receptor) | IC50 [2] | Ki [2] | IC50 [3] | Ki [3] | IC50 [4] | IC50 (Cytochrome P450 3A4) | Ki (Cytochrome P450 3A4) | IC50 (D(1A) dopamine receptor) | IC50 [5] | Ki [5]

CC(C)(C)NC[C@H](O)COc1nsnc1N1CCOCC1 [TIMOLOL]
Not Active: IC50 [1] | IC50 (Insulin receptor) | IC50 [2] | Ki [2] | IC50 [3] | Ki [3] | IC50 (Cytochrome P450 1A2) | Ki (Cytochrome P450 1A2) | IC50 [4] | IC50 (D(1A) dopamine receptor) | IC50 [5] | Ki [5]

CCS(=O)(=O)CCn1c([N+](=O)[O-])cnc1C [TINIDAZOLE]
Not Active: IC50 [1] | IC50 (Insulin receptor) | IC50 [2] | Ki [2] | IC50 [3] | Ki [3] | IC50 [4] | IC50 (D(1A) dopamine receptor) | IC50 [5] | Ki [5]

NC[C@H]1O[C@H](O[C@H]2[C@H](O)[C@@H](O[C@H]3O[C@H](CO)[C@@H](O)[C@H](N)[C@H]3O)[C@H](N)C[C@@H]2N)[C@H](N)C[C@@H]1O [TOBRAMYCIN]
Not Active: IC50 [1] | IC50 (Insulin receptor) | IC50 [2] | Ki [2] | IC50 [3] | Ki [3] | IC50 [4] | IC50 (Cytochrome P450 3A4) | Ki (Cytochrome P450 3A4) | IC50 (D(1A) dopamine receptor) | IC50 [5] | Ki [5]

O=c1n(CCCN2CCN(c3cccc(Cl)c3)CC2)nc2ccccn12 [TRAZODONE]
Not Active: IC50 [1] | IC50 (Insulin receptor) | IC50 (Cytochrome P450 1A2) | Ki (Cytochrome P450 1A2) | IC50 [4] | IC50 (Cytochrome P450 3A4) | Ki (Cytochrome P450 3A4)

COc1ccc(CN2CCNCC2)c(OC)c1OC [TRIMETAZIDINE]
Not Active: IC50 [1] | IC50 (Insulin receptor) | IC50 [2] | Ki [2] | IC50 [3] | Ki [3] | IC50 [4] | IC50 (D(1A) dopamine receptor) | IC50 [5] | Ki [5]
